Entries after “also recorded” stand apart in the source; their conditions may differ.
Columns and labels:
[1] = system: HCC or other solid tumors expressing FGFR4 and KLB; assay: Antitumor activity per RECIST v1.1, FGF401 single agent; assay type: in vivo, human
Text: The primary endpoint for the phase 1 parts was the incidence of DLTs evaluated. The probability of DLTs during the evaluation period was estimated for patients in the dose determining set (DDS) for each treatment arm, FGF401 single agent and FGF401 + spartalizumab combination, to estimate respective MTDs. DDS for the phase 1 single agent or combination comprised safety set patients who either experienced a DLT or had confirmation by both the sponsor and investigators that no DLT occurred during the first cycle, C1 (first 2 cycles: C1, C2) based on at least 66% of planned doses administered in C1 (C1 and C2) with a minimum of 21 (42) days of observation following the first dose. For phase 2, the primary efficacy endpoint to investigate the antitumor activity of FGF401 included time to tumor progression assessed in groups 1 and 2, and overall response rate (ORR) in group 3 based on local assessment per Response Evaluation Criteria in Solid Tumors (RECIST) v1.1.
Antitumor activity was locally assessed as per RECIST v1.1 and immune-related response criteria (irRC) (only for combination arm) and evaluated using the following endpoints: best overall response, overall response rate (ORR), disease control rate (DCR), time to tumor progression, and overall survival (OS). Estimation of best overall response (BOR) was based on assessments collected no later than 30 days after the last study treatment administration date for RECIST v1.1 and 150 days for irRC.
The primary and secondary efficacy outcomes were analyzed in the full analysis set according to the assigned treatment stratified by study group, which we defined as a subgroup (fast/fed, group 1/2/3) of patients who were administered with similar dose levels on a given treatment arm and phase. The results have been presented as per RECIST v1.1. The number of patients having BOR was provided along with ORR and DCR with 95% exact binomial CIs (Clopper-Pearson). Waterfall plots for the phase 1 parts depicted the best percentage change from baseline in sum of longest diameters (SOD). […] The estimate at a given time point was the estimated probability that a patient would remain event free up to that time point. A positive trend regarding the activity of FGF401 in groups 1 and 2 was concluded if the observed lower limit of their respective 90% CI was no less than their expected median TTPs of 1.5 months and 2.2 months estimated in the absence of FGF401. KM plots were also used to estimate OS rate with one-sided 95% CI at 3 months, 5 months, 7 months, and 9 months for single agent phase 1 overall and phase 2: groups 1, 2; for single agent phase 2 – group 3, OS, and progression free survival (PFS) were calculated regardless of RP2D but for overall tumor type.
Exploratory biomarker analyses were conducted using full analysis set to assess efficacy and FGF19 signaling inhibition associated with FGF401. The best tumor percentage change from baseline as per RECIST v1.1 were investigated by FGF19 status (positive/negative) as determined through RT-qPCR and IHC assay. An evaluable RT-qPCR sample was considered FGF19+ if mean threshold cycle for FGF19 was ≤35, and FGF19- otherwise. Among the patients with evaluable IHC assay samples, those who had % cellular positivity > 0 were considered FGF19 + .

FGF19-FGFR4 signaling = assay: Blood-based pharmacodynamic biomarkers (C4, total bile acids, FGF19, cholesterol); assay type: in vivo, human
Method: An immunohistochemistry (IHC) assay to detect FGF19 was used retrospectively on remnant samples and the association of FGF19 expression levels with best change in sum of diameters (SOD) for RECIST v1.1 in the single-agent was evaluated. […] FGF19 was quantified using a capture-ELISA assay from R&D System, Cat. nr. DF1900, with a LLOQ of 27.2 pg/mL and ULOQ of 1096.3 pg/mL. C4: 7α-Hydroxy-4-cholesten-3-one was determined using an LC-MS/MS method. The concentration of total bile acids were measured using the colorimetric diazyme’s enzymatic total bile acids assay.

[2] = system: CYP7A1 and DUSP6 transcript levels in tumor biopsies; assay: Tumor biopsy RNAseq pharmacodynamics; assay type: in vivo, human
Method: Additionally, exploratory biomarker endpoints to assess FGF19-FGFR4 signaling inhibition by FGF401 included temporal profiling of C4, FGF19, total bile acid and total cholesterol levels in blood, and CYP7A1 and DUSP6 transcript levels in tumor biopsies. An immunohistochemistry (IHC) assay to detect FGF19 was used retrospectively on remnant samples and the association of FGF19 expression levels with best change in sum of diameters (SOD) for RECIST v1.1 in the single-agent was evaluated.
For RNAseq based studies, extracted total RNA was depleted from ribosomal RNA using RNAseH. The rRNA-depleted sample was then prepared for sequencing using the TruSeq RNA v.2 Library Preparation kit (Illumina). After pooling the captured library using unique adapter index sequences and applying the pool to a sequencing flow cell, they were sequenced using Illumina v.4 chemistry and paired-end 100-bp reads. Sequence data were aligned to the reference human genome (build hg19) using STAR v.2.4.0e. Mapped reads were then used to quantify transcripts with HTSeq v.0.6.1p1 [28] and RefSeq GRCh38 v.82 gene annotation. Gene expression data were normalized using the trimmed mean of M-value normalization as implemented in the edgeR – Bioconductor package v.3.20.9 [29].

phospho-FGFR4 = assay: Preclinical in vivo phospho-FGFR4 inhibition; details: equivalent of 52.1 nM
[3] = single agent, phase I and phase II in total
[4] = most patients across the FGF401 dose levels
[5] = most on-treatment biopsies obtained at C1D8

COCCNc1cc(NC(=O)N2CCCc3cc(CN4CCN(C)CC4=O)c(C=O)nc32)ncc1C#N [FGF401, roblitinib]
median TTP ([1]; 120 mg, phase 1, fed and fasted combined, N = 45): 2.63 months
median OS ([1]; 120 mg, phase 1, fed and fasted combined, n/N = 38/45): 5.72 months
patients reporting PR at RP2D in phase 2 ([1]; all in patients with HCC): 4 patients
response by FGF19 IHC status ([1]; patients with HCC, phase 1/2, 27 FGF19 positive, 33 negative): trend for better response among the FGF19 IHC-positive patients
responses in patients with other tumor types ([1]; phase 1): no responses
partial response (PR) ([1]; phase 1, 59 evaluable patients with HCC, 80 mg fasted, 80 mg fed, 150 mg fasted, each): 3 patients
complete response (CR) ([1]; phase 1, 59 evaluable patients with HCC, 120 mg, fasted): 1 patient
probability estimate of remaining event free (90% CI) at 9 months ([1]; phase 2 group 1): 30.4 [19.1, 100]
PR ([1]; phase 2 group 1 (n = 28), 120 mg qd): 2 patients
probability estimate of remaining event free (90% CI) at 9 months ([1]; phase 2 group 2): 61.5 (49.8, 100)
PR ([1]; phase 2 group 2 (n = 31), 120 mg qd): 2 patients
probability estimate of remaining event free (90% CI) at 9 months ([1]; phase 2 group 3): 24.7 [12.6, 100]
CR [1, 3]: 1 patients
PR [1, 3]: 7 patients
patients with objective responses [1, 3]: 8 patients
association of FGF19 transcript level (RT-qPCR) with response ([1]; single-agent arm, prescreening biopsy): no clear association with response
dose-response analyses with the pharmacodynamic biomarkers (FGF19-FGFR4 signaling; all doses tested): did not identify any associations; also recorded: without a clear dose response
change in C4 level (FGF19-FGFR4 signaling; [4]): Increase; also recorded: treatment-induced elevation
change in total bile acid level (FGF19-FGFR4 signaling; [4]): Increase; also recorded: treatment-induced elevation
change in circulating FGF19 (FGF19-FGFR4 signaling; single-agent arm): Increase
change in total cholesterol (FGF19-FGFR4 signaling; single-agent arm): decrease
CYP7A1 transcript in on-treatment versus pretreatment biopsies [2, 5]: upregulation
DUSP6 transcript in on-treatment versus pretreatment biopsies [2, 5]: downregulation
changes in immune infiltration after FGF401 treatment ([2]; signatures summarized with GSVA): did not observe significant changes
IC90 equivalent in human plasma (phospho-FGFR4): ~ 23 ng/mL

— publication PMC9161616, “A first-in-human phase 1/2 study of FGF401 and combination of FGF401 with spartalizumab in patients with hepatocellular carcinoma or biomarker-selected solid tumors” (Journal of Experimental & Clinical Cancer Research : CR, 2022)
